Measured values published in patent publication US20020045638A1, “Method of treating estrogen receptor positive carcinoma” (priority 2000, published 2002).

Experiments:
[1] = system: BG-1 human ovarian cancer cells; assay: Inhibition of growth of BG-1 ovarian cancer cells (MTT), with MacSynergy II synergy analysis; format: cell-based; settings: for Antagonsim / Synergy: BG-1, antiestrogen in combination with CCI-779, MacSynergy II, Bliss independence model; for Percent Inhibition: CCI-779 0 nM
Protocol: In these test procedures, rapamycin 42-ester with 3-hydroxy-2-(hydroxymethyl)-2-methylpropionic acid was used as a representative rapamycin, and 2-(4-hydroxy-phenyl)-3-methyl-1-[4-(2-piperdin-1-yl-ethoxy)-benzyl-1 H-indol-5-ol, raloxifene, and 4-hydroxytamoxifen were used as representative antiestrogens.
One day before the experiment, cells were plated in 96-well plates at a cell density of 2,500 cells/well in IMEM medium supplemented with 10% fetal bovine serum. The next day, cells were treated with various concentrations of antiestrogen and rapamycin 42-ester with 3-hydroxy-2-(hydroxymethyl)-2-methylpropionic acid (referred to as CCI-779 in the tables below). Five or six-days later, cell growth was monitored.

[2] = system: MCF-7 human breast cancer cells; assay: Inhibition of growth of MCF-7 breast cancer cells (MTT), with MacSynergy II synergy analysis; settings: for Antagonsim / Synergy: MCF-7, antiestrogen in combination with CCI-779, MacSynergy II, Bliss independence model; for synergy of growth inhibition (in words): MCF-7 cells, in combination with CCI-779;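 on all read-outs here: cells treated five or six days with single agents or combinations, growth read by MTT, synergy surface equals observed % inhibition minus Bliss additive prediction, values under 0% signal antagonism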
Protocol: MCF-7 human breast cancer cells were maintained at 37° C. in a humidified atmosphere of 5% CO2 and 95% air in IMEM medium supplemented with 10% fetal bovine serum. […] One day before the experiment, cells were plated in 96-well plates at a cell density of 2,500 cells/well in IMEM medium supplemented with 10% fetal bovine serum. The next day, cells were treated with various concentrations of antiestrogen and rapamycin 42-ester with 3-hydroxy-2-(hydroxymethyl)-2-methylpropionic acid (referred to as CCI-779 in the tables below). Five or six-days later, cell growth was monitored. MTT solution (20 ul) (0.5 mg/ml) was added to each well and cells were incubated for an additional 4 h. The solution was then removed and 150 ul of DMSO added. The intensity of dark blue color corresponding to number of cells was read at 540 nm with an automated plate reader.
Briefly, theoretical additive interactions were calculated from the dose-response curves of each individual drug based on Bliss independence model. The calculated additive surface was then subtracted from the experimental surface to obtain a synergy surface representing % inhibition above the calculated additive value-synergy index. […] Likewise, any peak below the 0% plane is indicative of antagonism.

O=C(c1ccc(OCCN2CCCCC2)cc1)c1c(-c2ccc(O)cc2)sc2cc(O)ccc12 [RAL, raloxifene, reference compound]
Antagonsim [1]: −1.8 μM^2% | Synergy [1]: 40.3 μM^2% | Percent Inhibition ([1]; Table I, Raloxifene 0.25 nM): 0.74% | Percent Inhibition ([1]; Table I, Raloxifene 0.5 nM): −3.32% | Percent Inhibition ([1]; Table I, Raloxifene 1 nM): 7.79% | Percent Inhibition ([1]; Table I, Raloxifene 2 nM): 9.85% | Percent Inhibition ([1]; Table I, Raloxifene 3 nM): 11.5% | Percent Inhibition ([1]; Table I, Raloxifene 4 nM): 14.49% | Percent Inhibition ([1]; Table I, Raloxifene 5 nM): 14.04% | Antagonsim [2]: 0.0 μM^2% | Synergy [2]: 113.0 μM^2% | synergy of growth inhibition (in words) [2]: synergistic inhibition | Percent Inhibition ([2]; Table C, CCI-779 0 nM, Raloxifene 0.25 nM): −1.4% | Percent Inhibition ([2]; Table C, CCI-779 0 nM, Raloxifene 0.5 nM): −5.17% | Percent Inhibition ([2]; Table C, CCI-779 0 nM, Raloxifene 1 nM): 17.3% | Percent Inhibition ([2]; Table C, CCI-779 0 nM, Raloxifene 2 nM): 36.78% | Percent Inhibition ([2]; Table C, CCI-779 0 nM, Raloxifene 3 nM): 42.4% | Percent Inhibition ([2]; Table C, CCI-779 0 nM, Raloxifene 4 nM): 50.49% | Percent Inhibition ([2]; Table C, CCI-779 0 nM, Raloxifene 5 nM): 50.5%

CCC(=C(c1ccc(O)cc1)c1ccc(OCCN(C)C)cc1)c1ccccc1 [TAM, 4-hydroxytamoxifen, reference compound]
Antagonsim [1]: 0.0 μM^2% | Synergy [1]: 0.3 μM^2% | Percent Inhibition ([1]; Table H, 4-Hydroxytamoxifen 5 nM): 23.99% | Percent Inhibition ([1]; Table H, 4-Hydroxytamoxifen 10 nM): 21.39% | Percent Inhibition ([1]; Table H, 4-Hydroxytamoxifen 20 nM): 35.05% | Percent Inhibition ([1]; Table H, 4-Hydroxytamoxifen 30 nM): 36.43% | Percent Inhibition ([1]; Table H, 4-Hydroxytamoxifen 40 nM): 39.51% | Percent Inhibition ([1]; Table H, 4-Hydroxytamoxifen 50 nM): 47.73% | Percent Inhibition ([1]; Table H, 4-Hydroxytamoxifen 100 nM): 50% | Antagonsim [2]: 0.0 μM^2% | Synergy [2]: 77.00 μM^2% | synergy of growth inhibition (in words) [2]: synergistic inhibition | Percent Inhibition ([2]; Table B, CCI-779 0 nM, 4-Hydroxytamoxifen 5 nM): 20.44% | Percent Inhibition ([2]; Table B, CCI-779 0 nM, 4-Hydroxytamoxifen 10 nM): 22.75% | Percent Inhibition ([2]; Table B, CCI-779 0 nM, 4-Hydroxytamoxifen 20 nM): 39.85% | Percent Inhibition ([2]; Table B, CCI-779 0 nM, 4-Hydroxytamoxifen 30 nM): 41.46% | Percent Inhibition ([2]; Table B, CCI-779 0 nM, 4-Hydroxytamoxifen 40 nM): 39.09% | Percent Inhibition ([2]; Table B, CCI-779 0 nM, 4-Hydroxytamoxifen 50 nM): 47.19% | Percent Inhibition ([2]; Table B, CCI-779 0 nM, 4-Hydroxytamoxifen 100 nM): 36.99% | Percent Inhibition ([2]; Table F, 4-Hydroxytamoxifen 0 nM + 4-Hydroxytamoxifen 5 nM): 25.02% | Percent Inhibition ([2]; Table F, 4-Hydroxytamoxifen 0 nM + 4-Hydroxytamoxifen 10 nM): 37.37% | Percent Inhibition ([2]; Table F, 4-Hydroxytamoxifen 0 nM + 4-Hydroxytamoxifen 20 nM): 44.9% | Percent Inhibition ([2]; Table F, 4-Hydroxytamoxifen 0 nM + 4-Hydroxytamoxifen 30 nM): 42.42% | Percent Inhibition ([2]; Table F, 4-Hydroxytamoxifen 0 nM + 4-Hydroxytamoxifen 40 nM): 46.46% | Percent Inhibition ([2]; Table F, 4-Hydroxytamoxifen 0 nM + 4-Hydroxytamoxifen 50 nM): 45.78% | Percent Inhibition ([2]; Table F, 4-Hydroxytamoxifen 0 nM + 4-Hydroxytamoxifen 100 nM): 49.99% | Percent Inhibition ([2]; Table F, 4-Hydroxytamoxifen 5 nM + 4-Hydroxytamoxifen 0 nM): 12.73% | Percent Inhibition ([2]; Table F, 4-Hydroxytamoxifen 5 nM + 4-Hydroxytamoxifen 5 nM): 37.12% | Percent Inhibition ([2]; Table F, 4-Hydroxytamoxifen 5 nM + 4-Hydroxytamoxifen 10 nM): 49.04% | Percent Inhibition ([2]; Table F, 4-Hydroxytamoxifen 5 nM + 4-Hydroxytamoxifen 20 nM): 50.12% | Percent Inhibition ([2]; Table F, 4-Hydroxytamoxifen 5 nM + 4-Hydroxytamoxifen 30 nM): 50.39% | Percent Inhibition ([2]; Table F, 4-Hydroxytamoxifen 5 nM + 4-Hydroxytamoxifen 40 nM): 54.19% | Percent Inhibition ([2]; Table F, 4-Hydroxytamoxifen 5 nM + 4-Hydroxytamoxifen 50 nM): 53.75% | Percent Inhibition ([2]; Table F, 4-Hydroxytamoxifen 5 nM + 4-Hydroxytamoxifen 100 nM): 59.23% | Percent Inhibition ([2]; Table F, 4-Hydroxytamoxifen 10 nM + 4-Hydroxytamoxifen 0 nM): 27.87% | Percent Inhibition ([2]; Table F, 4-Hydroxytamoxifen 10 nM + 4-Hydroxytamoxifen 5 nM): 47.71% | Percent Inhibition ([2]; Table F, 4-Hydroxytamoxifen 10 nM + 4-Hydroxytamoxifen 10 nM): 47.11% | Percent Inhibition ([2]; Table F, 4-Hydroxytamoxifen 10 nM + 4-Hydroxytamoxifen 20 nM): 45.86% | Percent Inhibition ([2]; Table F, 4-Hydroxytamoxifen 10 nM + 4-Hydroxytamoxifen 30 nM): 47.6% | Percent Inhibition ([2]; Table F, 4-Hydroxytamoxifen 10 nM + 4-Hydroxytamoxifen 40 nM): 53.22% | Percent Inhibition ([2]; Table F, 4-Hydroxytamoxifen 10 nM + 4-Hydroxytamoxifen 50 nM): 56.54% | Percent Inhibition ([2]; Table F, 4-Hydroxytamoxifen 10 nM + 4-Hydroxytamoxifen 100 nM): 58.11% | Percent Inhibition ([2]; Table F, 4-Hydroxytamoxifen 50 nM + 4-Hydroxytamoxifen 0 nM): 39.46% | Percent Inhibition ([2]; Table F, 4-Hydroxytamoxifen 50 nM + 4-Hydroxytamoxifen 5 nM): 48.51% | Percent Inhibition ([2]; Table F, 4-Hydroxytamoxifen 50 nM + 4-Hydroxytamoxifen 10 nM): 51.71% | Percent Inhibition ([2]; Table F, 4-Hydroxytamoxifen 50 nM + 4-Hydroxytamoxifen 20 nM): 46.36% | Percent Inhibition ([2]; Table F, 4-Hydroxytamoxifen 50 nM + 4-Hydroxytamoxifen 30 nM): 42.54% | Percent Inhibition ([2]; Table F, 4-Hydroxytamoxifen 50 nM + 4-Hydroxytamoxifen 40 nM): 48.3% | Percent Inhibition ([2]; Table F, 4-Hydroxytamoxifen 50 nM + 4-Hydroxytamoxifen 50 nM): 50.98% | Percent Inhibition ([2]; Table F, 4-Hydroxytamoxifen 50 nM + 4-Hydroxytamoxifen 100 nM): 58.57% | Percent Inhibition ([2]; Table F, 4-Hydroxytamoxifen 100 nM + 4-Hydroxytamoxifen 0 nM): 46.41% | Percent Inhibition ([2]; Table F, 4-Hydroxytamoxifen 100 nM + 4-Hydroxytamoxifen 5 nM): 52.37% | Percent Inhibition ([2]; Table F, 4-Hydroxytamoxifen 100 nM + 4-Hydroxytamoxifen 10 nM): 50.34% | Percent Inhibition ([2]; Table F, 4-Hydroxytamoxifen 100 nM + 4-Hydroxytamoxifen 20 nM): 47.64% | Percent Inhibition ([2]; Table F, 4-Hydroxytamoxifen 100 nM + 4-Hydroxytamoxifen 30 nM): 48.22% | Percent Inhibition ([2]; Table F, 4-Hydroxytamoxifen 100 nM + 4-Hydroxytamoxifen 40 nM): 51.79% | Percent Inhibition ([2]; Table F, 4-Hydroxytamoxifen 100 nM + 4-Hydroxytamoxifen 50 nM): 55.29% | Percent Inhibition ([2]; Table F, 4-Hydroxytamoxifen 100 nM + 4-Hydroxytamoxifen 100 nM): 61.34% | Percent Inhibition ([2]; Table F, 4-Hydroxytamoxifen 200 nM + 4-Hydroxytamoxifen 0 nM): 45.75% | Percent Inhibition ([2]; Table F, 4-Hydroxytamoxifen 200 nM + 4-Hydroxytamoxifen 5 nM): 54.54% | Percent Inhibition ([2]; Table F, 4-Hydroxytamoxifen 200 nM + 4-Hydroxytamoxifen 10 nM): 51.06% | Percent Inhibition ([2]; Table F, 4-Hydroxytamoxifen 200 nM + 4-Hydroxytamoxifen 20 nM): 52% | Percent Inhibition ([2]; Table F, 4-Hydroxytamoxifen 200 nM + 4-Hydroxytamoxifen 30 nM): 49.75% | Percent Inhibition ([2]; Table F, 4-Hydroxytamoxifen 200 nM + 4-Hydroxytamoxifen 40 nM): 59.13% | Percent Inhibition ([2]; Table F, 4-Hydroxytamoxifen 200 nM + 4-Hydroxytamoxifen 50 nM): 59.05% | Percent Inhibition ([2]; Table F, 4-Hydroxytamoxifen 200 nM + 4-Hydroxytamoxifen 100 nM): 61.13% | Percent Inhibition ([2]; Table F, 4-Hydroxytamoxifen 400 nM + 4-Hydroxytamoxifen 0 nM): 48.85% | Percent Inhibition ([2]; Table F, 4-Hydroxytamoxifen 400 nM + 4-Hydroxytamoxifen 5 nM): 52.28% | Percent Inhibition ([2]; Table F, 4-Hydroxytamoxifen 400 nM + 4-Hydroxytamoxifen 10 nM): 58.29% | Percent Inhibition ([2]; Table F, 4-Hydroxytamoxifen 400 nM + 4-Hydroxytamoxifen 20 nM): 56.61% | Percent Inhibition ([2]; Table F, 4-Hydroxytamoxifen 400 nM + 4-Hydroxytamoxifen 30 nM): 57.28% | Percent Inhibition ([2]; Table F, 4-Hydroxytamoxifen 400 nM + 4-Hydroxytamoxifen 40 nM): 59.68% | Percent Inhibition ([2]; Table F, 4-Hydroxytamoxifen 400 nM + 4-Hydroxytamoxifen 50 nM): 67.28% | Percent Inhibition ([2]; Table F, 4-Hydroxytamoxifen 400 nM + 4-Hydroxytamoxifen 100 nM): 64.92%
